{"source": "patent US12403168B1", "about": "“Method for producing a plant-based extract composition having the effect of enhancing nutrition and immunity” (priority 2024, dated 2025)", "format_in_all_cases": "in vivo", "key": {"male (Swiss albino) mice [1]": {"system": "male (Swiss albino) mice", "experiment": "Cellular immune response (delayed hypersensitivity), ovalbumin mouse paw edema", "details": "CY (+) mice, cyclophosphamide 150 mg/kg i.p., composition 200 100 mg/kg/day, levamisole 25 mg/kg oral", "description": "(§1) Test subjects: the experiment was performed on healthy adult male (Swiss albino) mice, 5-6 weeks old, weighing 25±2 grams. They were nurtured to stabilize for 1 week before conducting the experiment at room temperature (27° C.-28° C.). They were fed with synthetic pellets for mice, and the drinking water was tap water.\n(§2) Test sample: the composition 200 which is obtained from the example 1, and the control sample used distilled water.\n(§3) Male (Swiss albino) mice were immunodeficient by intraperitoneally administering a single dose of cyclophosphamide (150 mg/kg body weight) on the first day and then orally administering the test samples continuously for 5 days.\n(§4) The experiment for immune-enhancing of the composition 200 by arrangement total of 60 male mice was used for experimental (23-25 g) divided into six treatments listed in Table 5 below.\n(§5) [formula] • wherein Pcq is the weight of the organ; Pct is the body weight of the mouse at the time of survey. 3) Leukocyte Count and Percentage of Leukocyte Types; • Collected tail vein blood from mice on the 5th day after CY injection. […] On the 14th day, sensitization was induced by tail vein injection with ovalbumin at a dose of 0.5 mg/kg mouse body weight. […] Measure the volume of the mouse paw at 4 hours (V1) and 24 hours (V2) after the second ovalbumin injection. The left paw that was not injected was used as the reference (Vo). […]"}, "male (Swiss albino) mice [2]": {"system": "male (Swiss albino) mice", "experiment": "Leukocyte count and percentage of leukocyte types", "details": "CY (+) mice, 5th day after CY injection 150 mg/kg i.p.; composition 200 100 mg/kg/day, levamisole 25 mg/kg oral", "description": "as §1, §2, §3, §4\nas §5, with “(Vo). Calculate the percentage of mouse paw edema using the formula:” for “(Vo).”"}, "male (Swiss albino) mice [3]": {"system": "male (Swiss albino) mice", "experiment": "Relative weight of organs: liver, spleen, and thymus", "details": "CY (+) mice, 10th day after cyclophosphamide 150 mg/kg i.p.; composition 200 100 mg/kg/day, levamisole 25 mg/kg oral", "description": "as §1, §2, §3, §4\nThe relative weights of the organs were calculated using the following formula:\nas §5, with “(Vo). Calculate the percentage of mouse paw edema using the formula:” for “(Vo).”"}}}
{"molecule": "c1ccc([C@H]2CN3CCSC3=N2)cc1", "note": "[levamisole]", "values": [{"measurement": "% V4h, percentage of the mouse paw edema after 4 hours", "setting": "male (Swiss albino) mice [1]; 4 hours after second ovalbumin injection", "value": "81.27 ± 7.52", "unit": "%"}, {"measurement": "% V24 h, percentage of the mouse paw edema after 24 hours", "setting": "male (Swiss albino) mice [1]; 24 hours after second ovalbumin injection", "value": "38.28 ± 7.12", "unit": "%"}, {"measurement": "% Lymphocyte", "setting": "male (Swiss albino) mice [2]", "value": "59.56 ± 4.42", "unit": "%"}, {"measurement": "% Monocyte", "setting": "male (Swiss albino) mice [2]", "value": "14.06 ± 3.64", "unit": "%"}, {"measurement": "% Neutrophil", "setting": "male (Swiss albino) mice [2]", "value": "10.81 ± 1.18", "unit": "%"}, {"measurement": "relative weight of liver", "setting": "male (Swiss albino) mice [3]", "value": "5.074 ± 0.189", "unit": "g %"}, {"measurement": "relative weight of spleen", "setting": "male (Swiss albino) mice [3]", "value": "0.343 ± 0.031", "unit": "g %"}, {"measurement": "relative weight of thymus", "setting": "male (Swiss albino) mice [3]", "value": "0.073 ± 0.013", "unit": "g %"}]}
